Reference: patent publication US12344610B2, “APOL1 inhibitors and methods of use” (Maze Therapeutics, Inc., priority 2022, dated 2025)

How the values were obtained:
Format in all cases: cell-based
APOL1 G2 = target: T1, APOL1 G2 (Homo sapiens, UniProt O14791, DEL388-389); test: APOL1-mediated calcium transport (calcium influx) assay, HEK T-REx/GCaMP6f/APOL1 G2 K6.3 cells, FLIPR TETRA; conditions: prevention of calcium influx; geometric mean of at least 2 assay runs; † = average of a technical replicate from a single assay run
T1 construct: expressed in transfected cells; host or cells: HEK293 T-REx clonal line stably expressing GCaMP6f (HEK T-REx/GCaMP6f/APOL1 G2 K6.3), doxycycline induced
T1 sequence (O14791 with tags, fused parts or gaps DEL388-389): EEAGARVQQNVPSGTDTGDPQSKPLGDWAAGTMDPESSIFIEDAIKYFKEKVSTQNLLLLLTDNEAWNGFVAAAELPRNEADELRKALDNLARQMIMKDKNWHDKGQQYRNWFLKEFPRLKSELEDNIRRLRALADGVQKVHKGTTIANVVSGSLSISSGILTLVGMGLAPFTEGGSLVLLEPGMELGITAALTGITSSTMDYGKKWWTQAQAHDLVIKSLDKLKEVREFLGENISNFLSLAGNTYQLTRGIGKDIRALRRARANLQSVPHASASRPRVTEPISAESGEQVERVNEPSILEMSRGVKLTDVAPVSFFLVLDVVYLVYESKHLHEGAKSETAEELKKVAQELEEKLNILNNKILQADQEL
Summary of the method: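 A HEK293 T-REx clone stably expressing GCaMP6f had APOL1 G2 induced with doxycycline (20 ng/mL solution added) for 6 h. Cells were then washed into Ca2+-free Tyrode's buffer (pH 7.4) and preincubated with compounds (duplicate 8-point) for 10 min at room temperature. Ca2+ injection to 5 mM final produced FLIPR GCaMP fluorescence, giving AC50 for influx inhibition (geometric mean, ≥2 runs).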

[1] = system: HEK293 cells overexpressing APOL1 G2; test: APOL1 G2 HEK293 cell rescue assay (reversal of cell death caused by overexpression of APOL1); conditions: geometric mean of at least 2 assay runs, † = single assay run
Summary of the method: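 Each compound tested in duplicate wells on one plate per run, with values usually the geometric mean across at least two runs on different days, occasionally from one run only. Read-out: concentration giving half-maximal rescue of APOL1 G2 overexpression-induced death of HEK293 cells.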

[2] = system: HEK293 clonal cell line overexpressing APOL1 G1; test: APOL1 G1 HEK293 cell rescue assay (Example B3); conditions: geometric mean of at least 2 runs, † = single run, ¥ = concentration at 50% rescue estimated (no sigmoidal curve)
Summary of the method: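 Rescue of cell death caused by APOL1 G1 overexpression was measured in a clonal HEK293 line. Compounds were tested in duplicate on one plate, and EC50s were geometric means across at least two runs on different days. Some values are estimated 50%-rescue concentrations where curve fitting failed.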

[3] = Homo sapiens, HEK293, HEK293 overexpressing APOL1 G2
[4] = Homo sapiens, HEK293, HEK293 clonal line overexpressing APOL1 G1

**Q.** `O=C1Nc2ccc(Cl)cc2C12CCN(CCOc1cnc(C3(O)CCC3)nc1)CC2` [Compound 430, 5-chloro-1′-(2-{[2-(1-hydroxycyclobutyl)pyrimidin-5-yl]oxy}ethyl)-1,2-dihydrospiro[indole-3,4′-piperidin]-2-one] was tested. Which AC50 (APOL1 G2) did it give?
**A.** 518 nM

**Q.** What about the EC50 [1, 3] of the same compound?
**A.** 72.9 nM

**Q.** And the EC50 [2, 4]?
**A.** 123 nM

**Q.** How did the AC50 (APOL1 G2) turn out when `CS(=O)(=O)c1ccc(OCCN2CCC3(CC2)C(=O)Nc2c(Cl)cc(Cl)cc23)cc1` [Compound 7, 5,7-dichloro-1′-[2-(4-methanesulfonylphenoxy)ethyl]-1,2-dihydrospiro[indole-3,4′-piperidin]-2-one] was run?
**A.** 601 nM

**Q.** What about the EC50 [1, 3] of the same compound?
**A.** 279 nM

**Q.** What about the EC50 [2, 4] of the same compound?
**A.** 764 nM

**Q.** For `CS(=O)(=O)c1ccc(OCCN2CCC3(CC2)C(=O)N(C2COC2)c2ccc(Cl)cc23)cc1` [Compound 22, 5-chloro-1′-(2-(4-(methylsulfonyl)phenoxy)ethyl)-1-(oxetan-3-yl)spiro[indoline-3,4′-piperidin]-2-one], which AC50 (APOL1 G2) is on record?
**A.** 306 nM

**Q.** What about the EC50 [1, 3] of the same compound?
**A.** 232 nM

**Q.** What about the EC50 [2, 4] of the same compound?
**A.** 580 nM

**Q.** Which results are given for `N#Cc1ccc2c(c1)C1(CCN(CCOc3ccc(C4(C(=O)N5CC(F)C5)COC4)cc3)CC1)C(=O)N2` [Compound 252, 1′-(2-{4-[3-(3-fluoroazetidine-1-carbonyl)oxetan-3-yl]phenoxy}ethyl)-2-oxo-1,2-dihydrospiro[indole-3,4′-piperidine]-5-carbonitrile]?
**A.** AC50 (APOL1 G2): 1350 nM; EC50 [1, 3]: 471 nM; EC50 [2, 4]: ~1800 nM

**Q.** `CC(COc1ccc(C2(S(C)(=O)=O)COC2)cc1)N1CCC2(CC1)C(=O)Nc1ccc(C#N)cc12` (stereo not drawn) [Compound 262, 1′-{1-[4-(3-methanesulfonyloxetan-3-yl)phenoxy]propan-2-yl}-2-oxo-1,2-dihydrospiro[indole-3,4′-piperidine]-5-carbonitrile] was tested. Which AC50 (APOL1 G2) did it give?
**A.** 2390 nM

**Q.** What about the EC50 [1, 3] of the same compound?
**A.** 299 nM

**Q.** What about the EC50 [2, 4] of the same compound?
**A.** 1780 nM

**Q.** What does the source list for `CC1(C)OC(=O)c2cc(OCCN3CCC4(CC3)C(=O)Nc3ccc(Cl)cc34)cnc21` [Compound 458, 5-chloro-1′-[2-({7,7-dimethyl-5-oxo-5H,7H-furo[3,4-b]pyridin-3-yl}oxy)ethyl]-1,2-dihydrospiro[indole-3,4′-piperidin]-2-one]?
**A.** AC50 (APOL1 G2): 528 nM; EC50 [1, 3]: 16.5 nM; EC50 [2, 4]: 75.7 nM

**Q.** For `O=C1Nc2ccc(Cl)cc2C12CCN(CCOc1cnc(N3CC4(C3)CS(=O)(=O)C4)nc1)CC2` [Compound 304, 6-[5-(2-{5-chloro-2-oxo-1,2-dihydrospiro[indole-3,4′-piperidin]-1′-yl}ethoxy)pyrimidin-2-yl]-2λ^6-thia-6-azaspiro[3.3]heptane-2,2-dione], which AC50 (APOL1 G2) is on record?
**A.** 1010 nM

**Q.** What about the EC50 [1, 3] of the same compound?
**A.** 134 nM

**Q.** What about the EC50 [2, 4] of the same compound?
**A.** 286 nM

**Q.** With `CNC(=O)N1Cc2ccc(OCCN3CCC4(CC3)C(=O)Nc3ccc(Cl)cc34)cc2C1` [Compound 61, 5-(2-{5-chloro-2-oxo-1,2-dihydrospiro[indole-3,4′-piperidin]-1′-yl}ethoxy)-N-methyl-2,3-dihydro-1H-isoindole-2-carboxamide] as the compound, how does the AC50 (APOL1 G2) read?
**A.** 686 nM

**Q.** What about the EC50 [1, 3] of the same compound?
**A.** 267 nM

**Q.** And the EC50 [2, 4]?
**A.** 632 nM

**Q.** How did the AC50 (APOL1 G2) turn out when `CC(COc1ccc2c(c1)CCC(=O)N2C)N1CCC2(CC1)C(=O)Nc1ccc(Cl)cc12` (single isomer, unassigned) [Compound 201, chloro-1′-[(2R) or (2S)-1-[(1-methyl-2-oxo-1,2,3,4-tetrahydroquinolin-6-yl)oxy]propan-2-yl]-1,2-dihydrospiro[indole-3,4′-piperidin]-2-one] was run?
**A.** 909 nM

**Q.** What about the EC50 ([1]; HEK293 overexpressing APOL1 G2) of the same compound?
**A.** 609 nM

**Q.** And the EC50 ([2]; HEK293 clonal line overexpressing APOL1 G1)?
**A.** 4920 nM

**Q.** `CS(=O)(=O)c1ccc(OCCN2CCC3(CC2)C(=O)N(CCO)c2ccc(C#N)cc23)cc1C(F)(F)F` [Compound 159, 1-(2-hydroxyethyl)-1′-{2-[4-methanesulfonyl-3-(trifluoromethyl)phenoxy]ethyl}-2-oxo-1,2-dihydrospiro[indole-3,4′-piperidine]-5-carbonitrile] was tested. Which AC50 (APOL1 G2) did it give?
**A.** 1010 nM

**Q.** And the EC50 [1, 3]?
**A.** 168 nM

**Q.** What about the EC50 [2, 4] of the same compound?
**A.** 588 nM

**Q.** For `CN1C(=O)C2(CCN(CCOc3ccc(N4CCCC4=O)cc3)CC2)c2ccccc21` [Compound 37, 1-methyl-1′-{2-[4-(2-oxopyrrolidin-1-yl)phenoxy]ethyl}-1,2-dihydrospiro[indole-3,4′-piperidin]-2-one], which AC50 (APOL1 G2) is on record?
**A.** 327 nM

**Q.** What about the EC50 [1, 3] of the same compound?
**A.** 1280 nM

**Q.** And the EC50 [2, 4]?
**A.** 692 nM

**Q.** What does the source list for `COCCN1C(=O)C2(CCN(CCOc3ccc(S(C)(=O)=O)cc3)CC2)c2ccccc21` [Compound 21, 1′-[2-(4-methanesulfonylphenoxy)ethyl]-1-(2-methoxyethyl)-1,2-dihydrospiro[indole-3,4′-piperidin]-2-one]?
**A.** AC50 (APOL1 G2): < 213 nM; EC50 [1, 3]: 1270 nM; EC50 [2, 4]: > 14400 nM

**Q.** Which results are given for `CS(=O)(=O)c1ccc(OCCN2CCC3(CC2)C(=O)N([C@H]2C[C@@H](O)C2)c2ccccc23)cc1` [Compound 19, 1′-[2-(4-methanesulfonylphenoxy)ethyl]-1-[(cis)-3-hydroxycyclobutyl]-1,2-dihydrospiro[indole-3,4′-piperidin]-2-one]?
**A.** AC50 (APOL1 G2): 481 nM; EC50 [1, 3]: 794 nM; EC50 [2, 4]: 4810 nM

**Q.** Which AC50 (APOL1 G2) does the source give for `CC(=O)N1CCCc2cc(OCCN3CCC4(CC3)C(=O)Nc3ccc(Cl)cc34)cnc21` [Compound 80, 1′-{2-[(8-acetyl-5,6,7,8-tetrahydro-1,8-naphthyridin-3-yl)oxy]ethyl}-5-chloro-1,2-dihydrospiro[indole-3,4′-piperidin]-2-one] here?
**A.** 375 nM

**Q.** What about the EC50 [1, 3] of the same compound?
**A.** 65.7 nM

**Q.** And the EC50 [2, 4]?
**A.** 178 nM

**Q.** How did the AC50 (APOL1 G2) turn out when `CN(C)C(=O)c1ccc(OCCN2CCC3(CC2)C(=O)Nc2ccc(Cl)cc23)cn1` [Compound 51] was run?
**A.** 953 nM

**Q.** What about the EC50 [1, 3] of the same compound?
**A.** 214 nM

**Q.** And the EC50 [2, 4]?
**A.** 1250 nM

**Q.** How did the AC50 (APOL1 G2) turn out when `O=C1Nc2ccc(Cl)cc2C12CCN(CCOc1ccc(C3CCCS3(=O)=O)cc1)CC2` (stereo not drawn) [Compound 175, 2-[4-(2-{5-chloro-2-oxo-1,2-dihydrospiro[indole-3,4′-piperidin]-1′-yl}ethoxy)phenyl]-1λ^6-thiolane-1,1-dione] was run?
**A.** 381 nM

**Q.** And the EC50 [1, 3]?
**A.** 63.1 nM

**Q.** And the EC50 [2, 4]?
**A.** 153 nM

**Q.** How did the AC50 (APOL1 G2) turn out when `[2H]C([2H])([2H])N1C(=O)C2(CCN(CCOc3ccc(C4(S(=O)(=O)C(C)C)COC4)cc3)CC2)c2cc(Cl)ccc21` [Compound 414, 5-chloro-1-(^2H3)methyl-1′-(2-{4-[3-(propane-2-sulfonyl)oxetan-3-yl]phenoxy}ethyl)-1,2-dihydrospiro[indole-3,4′-piperidin]-2-one] was run?
**A.** 347 nM

**Q.** And the EC50 [1, 3]?
**A.** 36.7 nM

**Q.** What about the EC50 [2, 4] of the same compound?
**A.** 110 nM

**Q.** How did the AC50 (APOL1 G2) turn out when `CS(=O)(=O)CCCS(=O)(=O)c1ccc(OCCN2CCC3(CC2)C(=O)Nc2ccc(Cl)cc23)cc1` [Compound 41, 5-chloro-1′-{2-[4-(3-methanesulfonylpropanesulfonyl)phenoxy]ethyl}-1,2-dihydrospiro[indole-3,4′-piperidin]-2-one] was run?
**A.** 709 nM

**Q.** And the EC50 [1, 3]?
**A.** 97 nM

**Q.** What about the EC50 [2, 4] of the same compound?
**A.** 307 nM

**Q.** What does the source list for `[2H]C([2H])(Oc1cnc2c(c1)CCC(=O)N2[C@H]1C[C@](O)(C([2H])([2H])[2H])C1)C([2H])([2H])N1CCC2(CC1)C(=O)Nc1ccc(Cl)cc12` [Compound 462, 5-chloro-1′-[2-({7-oxo-8-[(cis)-3-hydroxy-3-(^2H3)methylcyclobutyl]-5,6,7,8-tetrahydro-1,8-naphthyridin-3-yl}oxy)(1,1,2,2-^2H4)ethyl]-1,2-dihydrospiro[indole-3,4′-piperidin]-2-one]?
**A.** AC50 (APOL1 G2): 943 nM; EC50 [1, 3]: 17.8 nM; EC50 [2, 4]: 53.4 nM

**Q.** `[2H]C([2H])([2H])N1C(=O)C2(CCN(CCOc3cc(F)c4c(c3)CCNS4(=O)=O)CC2)c2cc(Cl)ccc21` [Compound 421, 6-{2-[5-chloro-1-(^2H3)methyl-2-oxo-1,2-dihydrospiro[indole-3,4′-piperidin]-1′-yl]ethoxy}-8-fluoro-3,4-dihydro-2H-1λ^6,2-benzothiazine-1,1-dione] was tested. Which AC50 (APOL1 G2) did it give?
**A.** 564 nM

**Q.** And the EC50 [1, 3]?
**A.** 34.5 nM

**Q.** And the EC50 [2, 4]?
**A.** 83.3 nM

**Q.** What does the source list for `[2H]C([2H])([2H])N1C(=O)C2(CCN(CCOc3ccc(S(C)(=O)=NC)c(C(F)(F)F)c3)CC2)c2cc(Cl)ccc21` (stereo not drawn) [Compound 413, 5-chloro-1-(^2H3)methyl-1′-(2-{4-[methyl(methylimino)oxo-λ^6-sulfanyl]-3-(trifluoromethyl)phenoxy)ethyl)-1,2-dihydrospiro[indole-3,4′-piperidin]-2-one]?
**A.** AC50 (APOL1 G2): 251 nM; EC50 [1, 3]: 60.3 nM; EC50 [2, 4]: 208 nM

**Q.** For `O=C1Nc2ccc(Cl)cc2C12CCN(CCOc1cnc(C3(O)COC3)nc1)CC2` [Compound 429, 5-chloro-1′-(2-{[2-(3-hydroxyoxetan-3-yl)pyrimidin-5-yl]oxy}ethyl)-1,2-dihydrospiro[indole-3,4′-piperidin]-2-one], which AC50 (APOL1 G2) is on record?
**A.** 435 nM

**Q.** And the EC50 [1, 3]?
**A.** 130 nM

**Q.** And the EC50 [2, 4]?
**A.** 200 nM
